Assay results as given in publication PMC10443802, “Targeting a xenobiotic transporter to ameliorate vincristine-induced sensory neuropathy” (JCI Insight, 2023).
Where “and” joins values, the source holds several entries; their conditions need not be identical. Identical values can stand only once.

Assays:
hOATP3A1 = hOATP3A1 (Homo sapiens, UniProt Q9UIG8); assay: Vincristine uptake screen, HeLa cells overexpressing hOATP3A1; format: in vitro ADME
Description: (§1) Relative uptake is expressed as percentage change compared with empty vector controls (n = 4–14 per group). […] Human OATP1B1 and OATP1B3 transporter–overexpressed cells were used as positive controls; empty vector controls were used as the negative control. […] Mechanical allodynia (C), thermal hyperalgesia (D), and sciatic nerve maximal action potential amplitudes (E) are expressed as percentage change relative to baseline values (n = 6–8 per group). Statistical analysis was performed using a 2-way ANOVA with Bonferroni’s post hoc test. **P < 0.01, ***P < 0.001, ****P < 0.0001, compared with baseline values. […] Data are shown as mean ± SEM. […]
(§2) transfected with transporters of interest, including hOAT1, hOAT3, hOAT4, hOATP1A2, hOATP3A1, hOATP4A1, hOATP5A1, hOATP1C1, hOATP1B1, hOATP1B3, hOATP2B1, hOCT1, hOCT2, hOCTN1, hOCTN2, hASBT, hNTCP, hNPT1, hMATE1, hOSTα/β, hPEPT1, hPEPT2, rOatp1a1, rOatp1a4, rOatp1a5, rOatp1b2, rNtcp, rAsbt, rOat1, and rOct1. Cells were transfected with expression plasmid or vector control lacking any insert using Lipofectin reagent (Invitrogen). Sixteen hours thereafter, cells were washed with transport media (OPTIMEM, Invitrogen) and treated with radiolabeled drug. […] The cellular radioactivity was quantified by liquid scintillation counting as described above. […]

hASBT = hASBT (Homo sapiens, UniProt Q12908); assay: Vincristine uptake screen, HeLa cells overexpressing hASBT; format: in vitro ADME
hASBT, sequence (Q12908 whole entry): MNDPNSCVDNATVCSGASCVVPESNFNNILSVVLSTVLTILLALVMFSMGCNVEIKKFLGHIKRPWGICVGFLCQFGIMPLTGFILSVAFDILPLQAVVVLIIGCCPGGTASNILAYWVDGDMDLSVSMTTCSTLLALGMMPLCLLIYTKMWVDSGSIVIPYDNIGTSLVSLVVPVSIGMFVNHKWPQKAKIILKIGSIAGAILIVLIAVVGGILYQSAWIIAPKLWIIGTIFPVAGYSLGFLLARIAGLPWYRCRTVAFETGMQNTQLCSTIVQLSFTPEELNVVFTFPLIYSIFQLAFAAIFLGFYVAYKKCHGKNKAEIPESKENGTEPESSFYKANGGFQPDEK
Description: as §1
as §2, with “(Invitrogen).” for “(Invitrogen). Sixteen hours thereafter, cells were washed with transport media (OPTIMEM, Invitrogen) and treated with radiolabeled drug.”
Samples were analyzed using real-time quantitative PCR and Taqman Probes (Applied Biosystems). The relative gene expression was determined using the ΔΔCt method, and normalized to the mouse or human housekeeping gene, GAPDH. […]

rOCT1 = rOCT1 (Rattus norvegicus, UniProt Q63089); assay: Vincristine uptake screen, HeLa cells overexpressing rOCT1; format: in vitro ADME
rOCT1, sequence (Q63089 whole entry): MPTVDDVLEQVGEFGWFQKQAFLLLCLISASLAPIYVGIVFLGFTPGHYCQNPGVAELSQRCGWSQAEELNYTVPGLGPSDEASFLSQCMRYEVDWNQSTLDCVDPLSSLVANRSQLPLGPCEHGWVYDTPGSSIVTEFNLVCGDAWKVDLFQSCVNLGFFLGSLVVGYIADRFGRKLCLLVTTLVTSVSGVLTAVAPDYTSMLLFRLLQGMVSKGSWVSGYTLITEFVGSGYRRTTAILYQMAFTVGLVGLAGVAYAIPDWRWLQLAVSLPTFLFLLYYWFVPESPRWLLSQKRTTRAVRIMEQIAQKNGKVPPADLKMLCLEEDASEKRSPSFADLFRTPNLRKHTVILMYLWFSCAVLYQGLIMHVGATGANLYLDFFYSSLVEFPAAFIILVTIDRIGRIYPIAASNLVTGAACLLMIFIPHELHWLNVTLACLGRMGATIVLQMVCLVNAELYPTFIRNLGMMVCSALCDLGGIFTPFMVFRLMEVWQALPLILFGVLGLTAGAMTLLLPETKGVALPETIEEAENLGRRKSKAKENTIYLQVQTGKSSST
Description: as §1, §2

OATP1B3 protein variants = assay: Vincristine transport by OATP1B3 single-nucleotide variants; format: in vitro ADME, human; details: single-nucleotide substitutions
Description: Figure S2. […] (A) Single […]
nucleotide polymorphisms (SNPs) activity percentage of OATP1B3 over-expressed cell after treated […]
Statistical analysis was performed using one-way ANOVA with Dunnett’s […]
(B) Schematic overview of […]
week (cumulative dose of 4 mg/kg). Von-Frey tests were performed on day -1, 9, 16, 18, and 23. Thermal hyperalgesia (Hargreaves test) and nerve conduction studies of the sciatic and caudal nerve were measured on days -1 and 23. Tissue samples for morphologic evaluation were obtained on day 24. (C) […]
and OATP1B2- deficient groups.
Normalized mechanical allodynia (E) was expressed as a percentage change relative to baseline values (n = 6-8 per group). Statistical

patients with cancer = details: cited from earlier work
hOATP1B3 = target: T1, hOATP1B3 (Homo sapiens, UniProt Q9NPD5); assay: Inhibition of EβG uptake in HEK293 cells overexpressing hOATP1B3; details: HEK293 hOATP1B3; inhibitor 10 μM, 15-min pre-incubation
T1 sequence (Q9NPD5 1-702): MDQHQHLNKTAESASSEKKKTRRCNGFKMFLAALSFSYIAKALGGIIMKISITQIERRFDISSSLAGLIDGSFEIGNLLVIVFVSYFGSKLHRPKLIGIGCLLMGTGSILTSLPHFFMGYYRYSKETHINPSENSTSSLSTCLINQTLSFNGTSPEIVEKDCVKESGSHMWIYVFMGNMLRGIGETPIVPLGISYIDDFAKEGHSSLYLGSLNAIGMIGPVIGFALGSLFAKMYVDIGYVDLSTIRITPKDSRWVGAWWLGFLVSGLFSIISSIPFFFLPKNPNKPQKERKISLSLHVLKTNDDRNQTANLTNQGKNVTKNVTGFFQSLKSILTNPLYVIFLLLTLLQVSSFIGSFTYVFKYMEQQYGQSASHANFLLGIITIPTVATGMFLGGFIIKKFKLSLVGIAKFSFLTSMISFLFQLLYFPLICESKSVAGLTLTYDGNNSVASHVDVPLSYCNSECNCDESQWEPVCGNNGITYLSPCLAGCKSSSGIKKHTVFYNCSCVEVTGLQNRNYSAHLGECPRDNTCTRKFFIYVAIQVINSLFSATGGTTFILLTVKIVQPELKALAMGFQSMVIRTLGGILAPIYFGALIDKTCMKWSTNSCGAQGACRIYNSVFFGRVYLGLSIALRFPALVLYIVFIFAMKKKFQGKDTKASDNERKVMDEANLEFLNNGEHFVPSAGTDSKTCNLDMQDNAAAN

P388D1 = details: vincristine 1 μM, 30 min, nilotinib 10 μM
Description: (A) Gene expression of the OATP1B2 gene in L1210 and P388D1 murine leukemia cells
normalized to total protein levels. All data presented represent the mean (bars) ± SEM (error bars).

hOATP3A1, sequence (Q9UIG8 whole entry): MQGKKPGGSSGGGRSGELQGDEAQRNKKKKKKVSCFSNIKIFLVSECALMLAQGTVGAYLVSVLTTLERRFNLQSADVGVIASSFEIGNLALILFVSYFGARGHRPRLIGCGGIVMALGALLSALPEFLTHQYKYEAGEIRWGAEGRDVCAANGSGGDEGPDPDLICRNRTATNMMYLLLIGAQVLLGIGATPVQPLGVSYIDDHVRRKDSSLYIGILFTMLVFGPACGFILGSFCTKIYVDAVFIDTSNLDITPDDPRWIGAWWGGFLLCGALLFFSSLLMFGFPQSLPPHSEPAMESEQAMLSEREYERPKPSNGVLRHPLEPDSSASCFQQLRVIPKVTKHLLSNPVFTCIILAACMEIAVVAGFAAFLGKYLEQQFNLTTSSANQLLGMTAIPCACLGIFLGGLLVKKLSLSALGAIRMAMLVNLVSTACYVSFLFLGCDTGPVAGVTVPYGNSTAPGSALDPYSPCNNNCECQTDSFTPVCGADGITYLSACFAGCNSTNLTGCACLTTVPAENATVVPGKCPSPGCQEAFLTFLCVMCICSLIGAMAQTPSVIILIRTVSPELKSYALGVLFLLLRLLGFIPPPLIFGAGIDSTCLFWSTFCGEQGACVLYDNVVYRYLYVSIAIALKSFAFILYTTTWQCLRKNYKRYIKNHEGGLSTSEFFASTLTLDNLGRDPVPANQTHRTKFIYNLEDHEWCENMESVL

CC[C@]1(O)C[C@H]2CN(CCc3c([nH]c4ccccc34)[C@@](C(=O)OC)(c3cc4c(cc3OC)N(C=O)[C@H]3[C@@](O)(C(=O)OC)[C@H](OC(C)=O)[C@]5(CC)C=CCN6CC[C@]43[C@@H]65)C2)C1 [Vincristine, vincristine]
Vincristine uptake (% of vector control) (hOATP3A1): 104.00 % of vector control and 96.00 % of vector control and 76.00 % of vector control and 101.00 % of vector control and 79.00 % of vector control and 120.00 % of vector control and 100.00 % of vector control and 111.00 % of vector control
Vincristine uptake (% of vector control) (hASBT): 91.00 % of vector control and 82.00 % of vector control and 85.00 % of vector control and 81.00 % of vector control and 114.00 % of vector control and 83.00 % of vector control and 69.00 % of vector control and 101.00 % of vector control
Vincristine uptake (% of vector control) (rOCT1): 113.00 % of vector control and 108.00 % of vector control and 138.00 % of vector control and 121.00 % of vector control
Transport by OATP1B3 protein variants (OATP1B3 protein variants): impaired ability to transport vincristine
Incidence of sensory peripheral neurotoxicity (patients with cancer): up to 100%

Cc1cn(-c2cc(NC(=O)c3ccc(C)c(Nc4nccc(-c5cccnc5)n4)c3)cc(C(F)(F)F)c2)cn1 [Nilotinib, nilotinib]
EβG uptake (% of vehicle) (hOATP1B3): 3.038 % of vehicle and 2.924 % of vehicle and 2.718 % of vehicle
Influence on uptake of vincristine (P388D1): did not influence the uptake of vincristine
